Data on ten molecules can be found in ChEMBL document CHEMBL6182870, “Synthesis and biological activity of 1H-pyrrolo[3,2-g]isoquinolines as Haspin kinase inhibitors” (Bioorg Med Chem, 2025).

Test [1] concerns the target T1, Serine/threonine-protein kinase haspin (Homo sapiens) (UniProt Q8TF76).
T1 sequence (whole entry): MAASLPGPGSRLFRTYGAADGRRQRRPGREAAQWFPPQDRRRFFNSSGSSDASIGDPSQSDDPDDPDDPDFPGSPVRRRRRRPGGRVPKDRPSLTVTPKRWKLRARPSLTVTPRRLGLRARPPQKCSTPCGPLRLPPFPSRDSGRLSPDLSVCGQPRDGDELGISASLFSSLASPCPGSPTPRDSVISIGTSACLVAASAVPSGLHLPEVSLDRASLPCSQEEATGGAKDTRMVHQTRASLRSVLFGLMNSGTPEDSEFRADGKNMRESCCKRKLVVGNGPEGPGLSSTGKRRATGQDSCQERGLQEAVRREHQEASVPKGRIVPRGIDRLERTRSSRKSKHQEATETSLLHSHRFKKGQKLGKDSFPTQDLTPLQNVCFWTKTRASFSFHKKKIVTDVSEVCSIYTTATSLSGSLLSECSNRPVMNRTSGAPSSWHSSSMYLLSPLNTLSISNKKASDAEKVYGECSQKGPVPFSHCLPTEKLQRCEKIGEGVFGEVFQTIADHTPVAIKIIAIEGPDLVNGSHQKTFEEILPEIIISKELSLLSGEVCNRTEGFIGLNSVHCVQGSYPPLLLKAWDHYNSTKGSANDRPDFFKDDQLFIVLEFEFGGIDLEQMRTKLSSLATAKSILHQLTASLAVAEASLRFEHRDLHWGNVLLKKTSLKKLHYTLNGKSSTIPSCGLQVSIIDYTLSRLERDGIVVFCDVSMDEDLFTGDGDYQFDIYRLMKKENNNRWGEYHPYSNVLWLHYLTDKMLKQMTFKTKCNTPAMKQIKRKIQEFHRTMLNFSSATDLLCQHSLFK
The experiment in a line: Inhibition of recombinant human haspin kinase domain (470 to 798 residues) extracted from bacteria using histone H3 (1 to 21) peptide as substrate assessed as residual activity at 10 uM incubated for 30 mins in presence of ATP by ADP-Glo kinase assay relative to control. On the technique in general: ADP-Glo first removes unused ATP, then detects ADP through luciferase.

The target in test [2] is T1, Serine/threonine-protein kinase haspin (Homo sapiens). The experiment in a line: Inhibition of recombinant human haspin kinase domain (470 to 798 residues) extracted from bacteria using histone H3 (1 to 21) peptide as substrate assessed as residual activity at 1 uM incubated for 30 mins in presence of ATP by ADP-Glo kinase assay relative to control.
In test [3] the target is Dual specificity tyrosine-phosphorylation-regulated kinase 1A (Rattus norvegicus) (UniProt Q63470). The experiment in a line: Inhibition of recombinant rat DYRK1A kinase domain (1 to 499 residues) extracted from bacteria using KKISGRLSPIMTEQ as substrate assessed as enzyme residual activity at 10 uM incubated for 30 mins in presence of ATP by ADP-Glo kinase assay relative to control.

Test [4] has as its target Dual specificity protein kinase CLK1 (Mus musculus) (UniProt P22518). Description: Inhibition of recombinant mouse CLK1 extracted from bacteria using GRSRSRSRSRSR as substrate assessed as enzyme residual activity at 10 uM incubated for 30 mins in presence of ATP by ADP-Glo kinase assay relative to control.
Test [5] shares this target. Description: Inhibition of recombinant mouse CLK1 extracted from bacteria using GRSRSRSRSRSR as substrate assessed as enzyme residual activity at 1 uM incubated for 30 mins in presence of ATP by ADP-Glo kinase assay relative to control.
In test [6] the target is Dual specificity tyrosine-phosphorylation-regulated kinase 1A (Rattus norvegicus) (UniProt Q63470). Description: Inhibition of recombinant rat DYRK1A kinase domain (1 to 499 residues) extracted from bacteria using KKISGRLSPIMTEQ as substrate assessed as enzyme residual activity at 1 uM incubated for 30 mins in presence of ATP by ADP-Glo kinase assay relative to control.

Test [7] can be described thus: Inhibition of recombinant human CDK9/Cyclin T extracted from baculovirus infected Sf9 cells using YSPTSPSYSPTSPSYSPTSPSKKKK as substrate assessed as enzyme residual activity at 10 uM incubated for 30 mins in presence of ATP by ADP-Glo kinase assay relative to control.
The nature of test [8]: Inhibition of recombinant human CDK9/Cyclin T extracted from baculovirus infected Sf9 cells using YSPTSPSYSPTSPSYSPTSPSKKKK as substrate assessed as enzyme residual activity at 1 uM incubated for 30 mins in presence of ATP by ADP-Glo kinase assay relative to control.
Test [9] has as its target Glycogen synthase kinase-3 beta (Homo sapiens) (UniProt P49841). Description: Inhibition of recombinant human GSK3beta extracted from baculovirus infected Sf9 cells using GS-1 (YRRAAVPPSPSLSRHSSPHQSpEDEEE) peptide as substrate assessed as enzyme residual activity at 10 uM incubated for 30 mins in presence of ATP by ADP-Glo kinase assay relative to control.
The target is the same in test [10]. The experiment in a line: Inhibition of recombinant human GSK3beta extracted from baculovirus infected Sf9 cells using GS-1 (YRRAAVPPSPSLSRHSSPHQSpEDEEE) peptide as substrate assessed as enzyme residual activity at 1 uM incubated for 30 mins in presence of ATP by ADP-Glo kinase assay relative to control.
Test [11] has as its target Casein kinase I isoform epsilon (Homo sapiens) (UniProt P49674). Description: Inhibition of recombinant human CK1epsilon extracted from baculovirus infected Sf9 cells using RRKHAAIGSpAYSITA peptide as substrate assessed as enzyme residual activity at 10 uM incubated for 30 mins in presence of ATP by ADP-Glo kinase assay relative to control.
The target is the same in test [12]. The experiment in a line: Inhibition of recombinant human CK1epsilon extracted from baculovirus infected Sf9 cells using RRKHAAIGSpAYSITA peptide as substrate assessed as enzyme residual activity at 1 uM incubated for 30 mins in presence of ATP by ADP-Glo kinase assay relative to control.
Test [13] concerns the target T2, Cyclin-dependent kinase 5/CDK5 activator 1 (Homo sapiens) (UniProt Q00535+Q15078). Description: Inhibition of recombinant human CDK5/p25 extracted from bacteria using histone H1 as substrate assessed as enzyme residual activity at 10 uM incubated for 30 mins in presence of ATP by ADP-Glo kinase assay relative to control. Type of test: protein-complex assay.
Test [14] has as its target T2, Cyclin-dependent kinase 5/CDK5 activator 1 (Homo sapiens). The experiment in a line: Inhibition of recombinant human CDK5/p25 extracted from bacteria using histone H1 as substrate assessed as enzyme residual activity at 1 uM incubated for 30 mins in presence of ATP by ADP-Glo kinase assay relative to control. Type of test: protein-complex assay.
Test [15] addresses T3, Serine/threonine-protein kinase pim-1 (Homo sapiens, UniProt P11309). Description: Inhibition of recombinant human PIM-1 extracted from bacteria using histone H1 as substrate assessed as enzyme residual activity at 10 uM incubated for 30 mins in presence of ATP by ADP-Glo kinase assay relative to control.
Test [16] has as its target T3, Serine/threonine-protein kinase pim-1. Description: Inhibition of recombinant human PIM-1 extracted from bacteria using histone H1 as substrate assessed as enzyme residual activity at 1 uM incubated for 30 mins in presence of ATP by ADP-Glo kinase assay relative to control.
The target of test [17] is T4, Serine/threonine-protein kinase haspin (Homo sapiens, UniProt Q8TF76).
T4 sequence (Q8TF76 whole entry): T1 sequence (whole entry)
The experiment in a line: Inhibition of recombinant human haspin kinase domain (470 to 798 residues) extracted from bacteria using histone H3 (1 to 21) peptide as substrate incubated for 30 mins in presence of ATP by ADP-Glo kinase assay.

Glycogen synthase kinase-3 beta (Homo sapiens), sequence (P49841 whole entry, looked up): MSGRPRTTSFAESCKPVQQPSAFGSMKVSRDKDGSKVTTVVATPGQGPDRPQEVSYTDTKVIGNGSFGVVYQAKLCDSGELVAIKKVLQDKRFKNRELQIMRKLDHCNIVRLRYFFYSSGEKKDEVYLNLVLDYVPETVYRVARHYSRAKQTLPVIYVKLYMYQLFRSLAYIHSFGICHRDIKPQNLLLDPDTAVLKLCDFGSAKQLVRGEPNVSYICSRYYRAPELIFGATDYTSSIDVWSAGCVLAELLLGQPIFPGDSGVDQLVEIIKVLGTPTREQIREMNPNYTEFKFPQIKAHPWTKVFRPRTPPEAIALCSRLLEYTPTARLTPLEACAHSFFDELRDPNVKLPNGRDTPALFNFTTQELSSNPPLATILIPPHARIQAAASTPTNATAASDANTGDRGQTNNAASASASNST
T3 sequence (P11309 whole entry, looked up): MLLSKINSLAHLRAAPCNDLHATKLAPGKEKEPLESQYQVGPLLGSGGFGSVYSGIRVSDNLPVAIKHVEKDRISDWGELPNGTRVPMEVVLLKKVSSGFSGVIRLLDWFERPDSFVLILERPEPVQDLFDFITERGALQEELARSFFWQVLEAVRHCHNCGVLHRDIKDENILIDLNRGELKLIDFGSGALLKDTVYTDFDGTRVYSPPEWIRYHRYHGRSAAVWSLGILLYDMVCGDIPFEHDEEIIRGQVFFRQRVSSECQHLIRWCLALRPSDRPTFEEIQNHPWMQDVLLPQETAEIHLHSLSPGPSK
T2 sequence (Q00535 whole entry): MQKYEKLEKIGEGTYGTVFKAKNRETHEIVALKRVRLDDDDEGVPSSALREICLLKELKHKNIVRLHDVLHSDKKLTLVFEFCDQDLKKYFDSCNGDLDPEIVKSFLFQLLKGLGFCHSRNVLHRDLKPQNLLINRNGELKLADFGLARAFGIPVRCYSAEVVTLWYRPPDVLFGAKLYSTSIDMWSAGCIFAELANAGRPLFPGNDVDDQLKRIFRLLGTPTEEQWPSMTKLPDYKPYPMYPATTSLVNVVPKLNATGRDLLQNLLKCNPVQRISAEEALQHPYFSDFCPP
T2 sequence (Q15078 99-307 partner limits assumed): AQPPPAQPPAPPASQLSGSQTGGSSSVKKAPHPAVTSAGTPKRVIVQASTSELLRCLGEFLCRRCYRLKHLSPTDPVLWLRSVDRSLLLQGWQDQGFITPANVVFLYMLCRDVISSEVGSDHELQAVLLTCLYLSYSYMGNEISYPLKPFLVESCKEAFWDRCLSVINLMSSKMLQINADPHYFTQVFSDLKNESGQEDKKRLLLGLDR
Casein kinase I isoform epsilon (Homo sapiens), sequence (P49674 whole entry, looked up, canonical isoform): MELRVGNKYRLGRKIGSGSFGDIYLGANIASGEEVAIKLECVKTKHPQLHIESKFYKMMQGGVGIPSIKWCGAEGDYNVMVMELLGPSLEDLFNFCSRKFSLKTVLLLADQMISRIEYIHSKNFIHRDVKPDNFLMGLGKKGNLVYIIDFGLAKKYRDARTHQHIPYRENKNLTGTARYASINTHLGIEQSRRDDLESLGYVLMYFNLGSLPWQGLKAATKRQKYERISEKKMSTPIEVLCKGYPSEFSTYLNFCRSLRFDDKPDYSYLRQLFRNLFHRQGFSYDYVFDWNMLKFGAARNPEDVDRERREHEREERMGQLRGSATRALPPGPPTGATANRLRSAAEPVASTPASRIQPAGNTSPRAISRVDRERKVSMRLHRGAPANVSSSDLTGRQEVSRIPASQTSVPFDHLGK
Dual specificity protein kinase CLK1 (Mus musculus), sequence (P22518 whole entry, looked up): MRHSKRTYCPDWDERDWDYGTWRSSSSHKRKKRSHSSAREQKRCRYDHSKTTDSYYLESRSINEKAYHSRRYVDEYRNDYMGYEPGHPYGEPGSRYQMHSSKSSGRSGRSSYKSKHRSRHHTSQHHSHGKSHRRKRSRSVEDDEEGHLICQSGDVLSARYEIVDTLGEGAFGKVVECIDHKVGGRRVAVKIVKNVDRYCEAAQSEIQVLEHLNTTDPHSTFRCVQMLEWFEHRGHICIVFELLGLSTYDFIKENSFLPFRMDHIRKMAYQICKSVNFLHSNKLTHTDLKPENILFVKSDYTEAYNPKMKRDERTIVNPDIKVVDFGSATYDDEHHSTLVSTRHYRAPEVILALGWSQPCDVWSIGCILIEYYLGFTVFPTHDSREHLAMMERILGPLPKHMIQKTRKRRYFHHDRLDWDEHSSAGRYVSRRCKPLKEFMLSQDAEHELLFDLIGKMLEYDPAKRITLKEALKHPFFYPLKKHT

Regarding `O=C1CCC(N2C(=O)c3cccc(NCCOCCOCCOCCn4cc(-c5ccncc5)c5cc6ccncc6cc54)c3C2=O)C(=O)N1` (stereo not given), the Activity was 71% in test [1]; 67% in [2]; 64% in test [3]; 89% in test [4]; 100% in test [5]; 90% in test [6]. For the same molecule, the Activity in [7] amounted to 96%; in [8], 97%; in test [9], 81%; in [10], 84%; in [11], 84%; in [12] it was 99%. The Activity in test [13] is 100%; in [14] it was 100%; in test [15], 64%; in [16] it was 74%.
With `Cn1cc(-c2ccccn2)c2cc3ccncc3cc21`, the Activity in test [1] was 7%; in [2] it was 25%; in [3], 23%; in test [4], 36%; in [5], 73%; in [6], 63%. Moreover, the Activity in test [7] is 49%; in [8] it was 77%; in test [9], 53%; in test [10], 67%; in [11], 89%; in test [12], 100%. Besides, the Activity in test [13] is 100%; in test [14] it was 100%; in test [15], 38%; in test [16], 74%. The IC50 – broadly, the midpoint of a concentration-inhibition curve – in test [17] worked out at 173 nM.
For `O=C1CCC(N2C(=O)c3cccc(NCCOCCOCCOCCn4ccc5cc6ccncc6cc54)c3C2=O)C(=O)N1` (stereo not given), the Activity in test [1] is 83%; in [2], 95%; in [3], 87%; in [4] it was 94%; in test [5] it was 100%; in test [6], 100%. For the same molecule, the Activity worked out at 88% in [7]; 91% in [8]; 81% in test [9]; 93% in [10]; 97% in [11]; 100% in test [12]. Further, the Activity in test [13] worked out at 100%; in test [14], 100%; in test [15], 86%; in test [16] it was 95%.
Consider `O=C1CCC(N2C(=O)c3cccc(NCCOCCOCCOCCn4cc(I)c5cc6ccncc6cc54)c3C2=O)C(=O)N1` (stereo not given), for which the results for the Activity in [1] and in [2] were 100% and 80%, respectively.
For the molecule `c1cc2c(ccc3cc[nH]c32)cn1`, the Activity was 9% in test [1]; 39% in [2]; 31% in test [3]; 43% in test [4]; 80% in test [5]; 50% in [6]. Also, the Activity in [7] was determined as 45%; in test [8], 59%; in test [9], 76%; in [10], 82%; in [11], 94%; in test [12], 95%. The Activity in test [13] came to 63%; in [14] it was 77%; in [15] it was 38%; in [16], 64%. Besides, the IC50 in test [17] was 258 nM.
For the molecule `O=C1CCC(N2C(=O)c3cccc(NCCOCCOCCOCCn4cc(Br)c5cc6ccncc6cc54)c3C2=O)C(=O)N1` (stereo not given), the figures for the Activity in test [1] and in [2] were 86% and 98%, respectively.
In the case of `c1cc2cc3c(cc2cn1)NCC3`, the Activity in [1] stood at 28%; in test [2] it was 66%; in [3], 66%; in test [4], 80%; in [5], 98%; in [6], 68%. For the same molecule, the Activity in test [7] came to 62%; in test [8], 75%; in [9], 80%; in test [10] it was 78%; in test [11], 96%; in [12], 92%. Also, the Activity in [13] was determined as 88%; in test [14], 89%; in [15], 70%; in [16], 65%.
With `O=C1CCC(N2C(=O)c3cccc(NCCOCCOCCOCCNC(=O)c4c[nH]c5cc6cnccc6cc45)c3C2=O)C(=O)N1` (stereo not given), the Activity in test [1] turned out to be 60%; in test [2], 74%; in [3], 84%; in test [4], 97%; in test [5], 97%; in test [6], 90%. Besides, the Activity in [7] stood at 86%; in test [8], 100%; in test [9], 85%; in test [10], 82%; in [11], 99%; in test [12], 100%. Further, the Activity in test [13] was 100%; in test [14], 100%; in test [15], 75%; in test [16] it was 67%.
As for `O=C1CCC(N2C(=O)c3cccc(NCCOCCOCCOCCn4cc(Cl)c5cc6ccncc6cc54)c3C2=O)C(=O)N1` (stereo not given), the Activity in test [1] was determined as 90%; in [2], 78%.
Turning to `O=C1CCC(N2C(=O)c3cccc(NCCOCCOCCOCCn4cc(-c5cccnc5)c5cc6ccncc6cc54)c3C2=O)C(=O)N1` (stereo not given), the Activity in [1] was determined as 71%; in test [2], 70%; in [3], 74%; in test [4], 79%; in test [5] it was 90%; in test [6], 65%. Besides, the Activity in [7] is 81%; in test [8], 91%; in test [9], 74%; in [10], 86%; in test [11], 91%; in test [12], 100%. The Activity in [13] was determined as 100%; in test [14], 100%; in test [15], 66%; in test [16], 61%.
